Values quoted from earlier work in article PMC4621921 (Oncotarget, 2015).
Like-named read-outs stand apart in the source and are kept apart here.

Tests used:
[1] = tested on: prostate cancer; set-up: method as in PMID 23169517; conditions: phase 2, prostate cancer
[2] = tested on: castration-resistant prostate cancer; set-up: method as in earlier work; conditions: phase 3, castration-resistant prostate cancer; no statistically significant improvement
[3] = set-up: method as in PMID 23169517, PMID 24002501; conditions: clinical studies
[4] = in vivo

Structure (SMILES)	evaluable patients with regression in soft tissue lesions [1] [%]	PFS ([1]; versus 5.9 weeks with placebo) [weeks]	median OS [2] [months]	common AEs [3]	common AEs [4]
COc1cc2nccc(Oc3ccc(NC(=O)C4(C(=O)Nc5ccc(F)cc5)CC4)cc3)c2cc1OC [cabozantinib]	72	23.9	11	fatigue, decreased appetite, and diarrhea	
COc1cc2c(Oc3ccc(NC(=O)C4(C(=O)Nc5ccc(F)cc5)CC4)cc3F)ccnc2cc1OCCCN1CCOCC1 [foretinib]					fatigue, hypertension, and gastrointestinal toxicities
C[C@]12C=CC(=O)C=C1CC[C@@H]1[C@@H]2C(=O)C[C@@]2(C)[C@H]1CC[C@]2(O)C(=O)CO [prednisone]			9.8		
